Assay results reported in patent publication US5043450A, “8-alkoxyquinolonecarboxylic acid and salts thereof” (priority 1986, dated 1991).
Read-outs that look alike come from different tables or passages of the source.

What was measured:
Type in all cases: cell-based
F. varium KYA 8501 = experiment: Antibacterial spectra, MIC; settings: Fusobacterium varium, KYA8501
[1] = system: Morganella morganii IID 602; experiment: Antibacterial spectra, MIC
[2] = system: Eubacterium lentum GAI 5242; experiment: Antibacterial spectra, MIC; settings: Eggerthella lenta, GAI5242
[3] = system: Propionibacterium acens 11828; experiment: Antibacterial spectra, MIC
P. mirabilis IID 994 = experiment: Antibacterial spectra, MIC; settings: Proteus mirabilis, IID994
[4] = system: Proteus vulgaris IFO 3167; experiment: Antibacterial spectra, MIC; settings: IFO3167, 10^6 cells/ml, Gram -
Protocol: (§1) The antibacterial test was carried out according to the method designated by Japan Society of Chemotherapy.

Shigella sonnei IID 969 = experiment: Antibacterial spectra, MIC; settings: IID969, 10^6 cells/ml, Gram -
Protocol: as §1

E. coli ML 4707 = experiment: Antibacterial spectra, MIC; settings: Escherichia coli, ML4707; 10^6 cells/ml; Gram -
Protocol: as §1

F. necrophorum S-45 = experiment: Antibacterial spectra, MIC; settings: Fusobacterium necrophorum, S45
[5] = system: Escherichia coli NIHJ JC-2; experiment: Antibacterial spectra, MIC
C. perfringens KYA 13123 = experiment: microbe, parasite or virus in culture; settings: Clostridium perfringens, KYA13123
[6] = system: Acinetobacter anitratus IID 876; experiment: Antibacterial spectra, MIC; settings: Acinetobacter calcoaceticus, IID876
[7] = system: Pseudomonas aeruginosa V-1; experiment: Antibacterial spectra, MIC
[8] = system: Serratia marcescens IID 618; experiment: Antibacterial spectra, MIC
[9] = system: B. thetaiotaomicron (0661); experiment: Antibacterial spectra, MIC; settings: Bacteroides thetaiotaomicron
[10] = system: Klebsiella pneumoniae KY(GN)6445; experiment: Antibacterial spectra, MIC
B. distasonis 8503 = experiment: Antibacterial spectra, MIC; settings: Parabacteroides distasonis
[11] = system: Clostridium difficile I-E; experiment: Antibacterial spectra, MIC; settings: Clostridioides difficile
[12] = system: Enterobacter cloacae IID 977; experiment: Antibacterial spectra, MIC
[13] = system: Staphylococcus aureus 209 P; experiment: Antibacterial spectra, MIC
[14] = system: Peptostreptococcus anaerobius KYA 27337; experiment: Antibacterial spectra, MIC
E. coli ATCC 10536 = experiment: Antibacterial spectra, MIC; settings: Escherichia coli, ATCC10536
P. cepacia GIFU 518 = experiment: Antibacterial spectra, MIC; settings: Burkholderia cepacia, GIFU518
P. maltophilia GIFU 2491 = experiment: Antibacterial spectra, MIC; settings: Stenotrophomonas maltophilia, GIFU2491
[15] = system: Yersinia enterocolitica IID 981; experiment: Antibacterial spectra, MIC
[16] = system: S. aureus IID 670 (Terajima); experiment: Antibacterial spectra, MIC; settings: Staphylococcus aureus, IID670
[17] = system: Bacteroides fragilis GM 7000; experiment: Antibacterial spectra, MIC
B. fragilis 0558 = experiment: Antibacterial spectra, MIC; settings: Bacteroides fragilis
P. aeruginosa IID 1210 = experiment: Antibacterial spectra, MIC; settings: Pseudomonas aeruginosa, IID1210
P. aeruginosa IFO 12689 = experiment: Antibacterial spectra, MIC; settings: Pseudomonas aeruginosa, IFO12689
C. ramosum = experiment: Antibacterial spectra, MIC; settings: Thomasclavelia ramosa
S. epidermidis IID 866 = experiment: Antibacterial spectra, MIC; settings: Staphylococcus epidermidis, IID866
B. fragilis 25285 = experiment: Antibacterial spectra, MIC; settings: Bacteroides fragilis
K. pneumoniae 1-220S = experiment: Antibacterial spectra, MIC; settings: Klebsiella pneumoniae, 1220S
[18] = system: Alcaligenes faecalis 0114002; experiment: Antibacterial spectra, MIC
[19] = system: Peptococcus magnus KY 017; experiment: Antibacterial spectra, MIC; settings: Finegoldia magna, KY017
[20] = system: Fusobacterium mortiferum 4249; experiment: Antibacterial spectra, MIC
[21] = system: Salmonella enteritidis IID 604; experiment: Antibacterial spectra, MIC; settings: Salmonella enterica
Bacilus subtilis PCI 219 = experiment: Antibacterial spectra, MIC; settings: Bacillus subtilis, PCI219
B. vulgatus KYA 29327 = experiment: Antibacterial spectra, MIC; settings: Phocaeicola vulgatus, KYA29327
[22] = system: Veillonella parvula KYA 10790; experiment: Antibacterial spectra, MIC
Pst. micros UPI 5464-1 = experiment: Antibacterial spectra, MIC; settings: Parvimonas micra, UPI54641
[23] = system: Citrobacter freundii IID 976; experiment: Antibacterial spectra, MIC
S. aureus Smith = experiment: Antibacterial spectra, MIC; settings: Staphylococcus aureus
[24] = IID602, 10^6 cells/ml, Gram -, read-out: MIC
[25] = 10^6 cells/ml, Gram +, read-out: MIC
[26] = 10^6 cells/ml, Gram -, read-out: MIC
[27] = IID618, 10^6 cells/ml, Gram -, read-out: MIC
[28] = IID977, 10^6 cells/ml, Gram -, read-out: MIC
[29] = IID981, 10^6 cells/ml, Gram -, read-out: MIC
[30] = IID976, 10^6 cells/ml, Gram -, read-out: MIC

Measured: MIC

COc1c(N2CCNCC2)c(F)cc2c(=O)c(C(=O)O)cn(C3CC3)c12 [Exp. 1]
0.025 µg/mL: P. mirabilis IID 994; [26] | E. coli ML 4707 | [10]; [26] | E. coli ATCC 10536; [26] | Bacilus subtilis PCI 219; [25] | [23]; [30]
1.56 µg/mL: [9]; [26] | B. distasonis 8503; [26]
0.2 µg/mL: [2]; [25] | [18]; [26] | [19]; [25] | [22]; KYA10790, 10^6 cells/ml, Gram -, read-out: MIC | Pst. micros UPI 5464-1; [25]
0.39 µg/mL: F. necrophorum S-45 | C. perfringens KYA 13123 | [14]; KYA27337 | P. maltophilia GIFU 2491 | B. fragilis 0558 | P. aeruginosa IID 1210 | B. fragilis 25285 | [20]
0.1 µg/mL: [6]; [26] | [7]; V1, 10^6 cells/ml, Gram -, read-out: MIC | [13]; [25] | [16]; [25] | S. epidermidis IID 866; [25] | S. aureus Smith; [25]
≤ 0.0063 µg/mL: [5]; NIHJJC2, 10^6 cells/ml, Gram -, read-out: MIC
0.05 µg/mL: [1]; [24] | [8]; [27] | [12]; [28] | [15]; [29] | K. pneumoniae 1-220S; [26] | [21]; [26]
0.0125 µg/mL: [4] | Shigella sonnei IID 969
0.78 µg/mL: P. cepacia GIFU 518; [26] | [17]; GM7000, 10^6 cells/ml, Gram -, read-out: MIC | P. aeruginosa IFO 12689; [26] | B. vulgatus KYA 29327; [26]
3.13 µg/mL: F. varium KYA 8501 | [3] | [11] | C. ramosum

COc1c(N2CCN(C)CC2)c(F)cc2c(=O)c(C(=O)O)cn(C3CC3)c12 [Exp. 2, 1-cyclopropyl-6-fluoro-1,4-dihydro-8-methoxy-7-(4-methyl-1-piperazinyl)-4-oxo-3-quinolinecarboxylic acid]
0.05 µg/mL: P. mirabilis IID 994; [26] | [10]; [26] | [23]; [30]
0.78 µg/mL: F. necrophorum S-45; [26] | [14]; KYA27337, 10^6 cells/ml, Gram +, read-out: MIC | [20]; [26]
6.25 µg/mL: F. varium KYA 8501; [26] | [3]; [25]
1.56 µg/mL: [9]; [26] | [11]; [25] | P. cepacia GIFU 518; [26] | P. aeruginosa IID 1210; [26] | P. aeruginosa IFO 12689; [26]
0.2 µg/mL: [2]; [25] | P. maltophilia GIFU 2491; [26] | B. fragilis 0558; [26] | [19]; [25]
3.13 µg/mL: C. ramosum
0.39 µg/mL: C. perfringens KYA 13123 | [7]; V1 | B. distasonis 8503 | [17]; GM7000 | B. fragilis 25285 | [18] | B. vulgatus KYA 29327 | [22]; KYA10790 | Pst. micros UPI 5464-1
0.1 µg/mL: [1]; [24] | [6]; [26] | [8]; [27] | [12]; [28] | [13]; [25] | [15]; [29] | [16]; [25] | S. epidermidis IID 866; [25] | K. pneumoniae 1-220S; [26] | [21]; [26] | S. aureus Smith; [25]
0.0125 µg/mL: [5]; NIHJJC2
0.025 µg/mL: [4] | Shigella sonnei IID 969 | E. coli ML 4707 | E. coli ATCC 10536 | Bacilus subtilis PCI 219

COc1c(N2CCNC(C)C2)c(F)cc2c(=O)c(C(=O)O)cn(C3CC3)c12 (stereo not drawn) [Exp. 3, 1-cyclopropyl-6-fluoro-1,4-dihydro-8-methoxy-7-(3-methyl-1-piperazinyl)-4-oxo-3-quinolinecarboxylic acid]
0.2 µg/mL: [2] | [7]; V1 | P. maltophilia GIFU 2491 | [19] | [22]; KYA10790 | Pst. micros UPI 5464-1
0.78 µg/mL: [9] | B. distasonis 8503 | [20] | B. vulgatus KYA 29327
0.1 µg/mL: [1]; IID602 | [6] | [8]; IID618 | [13] | [16] | S. epidermidis IID 866 | S. aureus Smith
0.39 µg/mL: F. necrophorum S-45 | C. perfringens KYA 13123 | [14]; KYA27337 | [17]; GM7000 | B. fragilis 0558 | B. fragilis 25285 | [18]
0.05 µg/mL: [12]; IID977 | [15]; IID981 | K. pneumoniae 1-220S | [21]
6.25 µg/mL: F. varium KYA 8501 | [3]
0.0125 µg/mL: Shigella sonnei IID 969 | E. coli ML 4707 | E. coli ATCC 10536
1.56 µg/mL: P. cepacia GIFU 518 | P. aeruginosa IID 1210 | P. aeruginosa IFO 12689
0.025 µg/mL: P. mirabilis IID 994 | [4] | [10] | Bacilus subtilis PCI 219 | [23]; IID976
≤ 0.0063 µg/mL: [5]; NIHJJC2
3.13 µg/mL: [11] | C. ramosum
